Assay [1] in a line: Binding affinity for dopamine receptor D2 in guinea pig striatal membrane using radiolabeled ligand [3H]spiperone.
Assay [2] deals with Sigma-1 receptor (Cavia porcellus). Kind of assay: Binding affinity for sigma receptor in guinea pig brain membrane using radiolabeled ligand [3H]-(+)-SKF- 10,047 was determined.

Structures are written as SMILES. Counter-ions that a name gives are not always drawn.

As a reminder, the Ki is the equilibrium dissociation constant of an inhibitor or competing ligand from its target. Lower therefore signals tighter binding. Turning to `O=C1C=C(c2ccccc2)OC12CCN(Cc1ccccc1)CC2` [8-Benzyl-2-phenyl-1-oxa-8-aza-spiro[4.5]dec-2-en-4-one; hydrochloride], the Ki was above 10000 nM in assay [1] and 1 nM in assay [2].

With `O=C1C(c2ccccc2)=COC12CCN(Cc1cccc(Cl)c1)CC2` [8-(3-Chloro-benzyl)-3-phenyl-1-oxa-8-aza-spiro[4.5]dec-2-en-4-one; hydrochloride], the Ki in assay [1] was determined as 2110 nM; in assay [2], 232 nM.

For `CN1CCC2(CC1)OC(C)(c1ccccc1)CC2=O` (configuration not stated) [2,8-Dimethyl-2-phenyl-1-oxa-8-aza-spiro[4.5]decan-4-one; compound with (E)-but-2-enedioic acid], the Ki was 10000 nM in assay [1] and 214 nM in assay [2].

In the case of `O=C1C(c2ccc(F)cc2)=COC12CCN(CC1CCCCC1)CC2` [8-Cyclohexylmethyl-3-(4-fluoro-phenyl)-1-oxa-8-aza-spiro[4.5]dec-2-en-4-one; hydrochloride], the Ki in assay [1] was 962 nM; in assay [2], 2 nM.

As for `O=C1C(c2ccc(F)cc2)=COC12CCN(CCc1ccccc1)CC2` [3-(4-Fluoro-phenyl)-8-phenethyl-1-oxa-8-aza-spiro[4.5]dec-2-en-4-one; hydrochloride], the Ki in assay [1] turned out to be 217 nM; in assay [2], 24 nM.

On to `O=C1C(c2ccccc2)=COC12CCN(Cc1ccc(F)cc1)CC2` [8-(4-Fluoro-benzyl)-3-phenyl-1-oxa-8-aza-spiro[4.5]dec-2-en-4-one; hydrochloride], for which the Ki in assay [1] is 2420 nM; in assay [2], 3 nM.

On to `CCN(CC)CCC1(C)OC(c2ccccc2)=CC1=O` (configuration not stated) [2-(2-Diethylamino-ethyl)-2-methyl-5-phenyl-furan-3-one; hydrochloride], for which the results for the Ki in assay [1] and in assay [2] were above 10000 nM and 44 nM, respectively.

For `O=C(CCCN1CCC2(CC1)OC=C(c1ccccc1)C2=O)c1ccc(F)cc1` [8-[4-(4-Fluoro-phenyl)-4-oxo-butyl]-3-phenyl-1-oxa-8-aza-spiro[4.5]dec-2-en-4-one; hydrochloride], the Ki turned out to be 70 nM in assay [1] and 17 nM in assay [2].

`CN1CCC2(CC1)OC=C(c1ccc(F)cc1)C2=O` [3-(4-Fluoro-phenyl)-8-methyl-1-oxa-8-aza-spiro[4.5]dec-2-en-4-one; hydrochloride]: the Ki in assay [1] turned out to be 2600 nM; in assay [2] it was 4000 nM.

Regarding `O=C1C(c2ccccc2)=COC12CCN(CC1CCCCC1)CC2` [8-Cyclohexylmethyl-3-phenyl-1-oxa-8-aza-spiro[4.5]dec-2-en-4-one; hydrochloride], the Ki in assay [1] is 642 nM; in assay [2] it was 1 nM.

Consider `CCN(CC)CCC1(C)OC=C(c2ccccc2)C1=O` (configuration not stated) [2-(2-Diethylamino-ethyl)-2-methyl-4-phenyl-furan-3-one; hydrochloride], for which the Ki in assay [1] is 10000 nM; in assay [2] it was 9 nM.

Regarding `COc1ccc(C2=COC3(CCN(CCc4ccccc4)CC3)C2=O)cc1` [3-(4-Methoxy-phenyl)-8-phenethyl-1-oxa-8-aza-spiro[4.5]dec-2-en-4-one; hydrochloride], the Ki in assay [1] was 2070 nM; in assay [2] it was 30 nM.

With `C=CCN1CCC2(CC1)OC=C(c1ccccc1)C2=O` [8-Allyl-3-phenyl-1-oxa-8-aza-spiro[4.5]dec-2-en-4-one; hydrochloride], the Ki was found to be 4870 nM in assay [1] and 163 nM in assay [2].

`CN(C)CCC1(c2ccccc2)OC=C(c2ccccc2)C1=O` (configuration not stated) [2-(2-Dimethylamino-ethyl)-2,4-diphenyl-furan-3-one; hydrochloride]: the Ki in assay [1] is 2690 nM; in assay [2] it was 223 nM.

Consider `O=C1C(c2ccc3ccccc3c2)=COC12CCN(CCc1ccccc1)CC2` [3-Naphthalen-2-yl-8-phenethyl-1-oxa-8-aza-spiro[4.5]dec-2-en-4-one; hydrochloride], for which the Ki in assay [1] turned out to be 3130 nM; in assay [2] it was 35 nM.

Consider `O=C1C=C(c2ccccc2)OC12CCNCC2` [2-Phenyl-1-oxa-8-aza-spiro[4.5]dec-2-en-4-one; hydrochloride], for which the results for the Ki in assay [1] and in assay [2] were above 10000 nM and 462 nM, respectively.

For the molecule `Cc1cc(CN2CCC3(CC2)OC=C(c2ccccc2)C3=O)on1` [8-(3-Methyl-isoxazol-5-ylmethyl)-3-phenyl-1-oxa-8-aza-spiro[4.5]dec-2-en-4-one; hydrochloride], the results for the inhibition constant Ki in assay [1] and in assay [2] were 32000 nM and 7500 nM, respectively.

`O=C1C(c2ccccc2)=COC12CCNCC2` [3-Phenyl-1-oxa-8-aza-spiro[4.5]dec-2-en-4-one; hydrochloride]: the Ki in assay [1] came to 10000 nM; in assay [2] it was 6220 nM.

In the case of `O=C(CCCN1CCCC2(C1)OC(c1ccccc1)=CC2=O)c1ccc(F)cc1` (configuration not stated) [7-[4-(4-Fluoro-phenyl)-4-oxo-butyl]-2-phenyl-1-oxa-7-aza-spiro[4.5]dec-2-en-4-one; hydrochloride], the inhibition constant Ki in assay [1] came to 152 nM; in assay [2], 384 nM.

Consider `O=C1C(c2ccccc2)=COC12CCN(Cc1ccccc1)CC2` [8-Benzyl-3-phenyl-1-oxa-8-aza-spiro[4.5]dec-2-en-4-one; hydrochloride], for which the Ki was 2370 nM in assay [1] and 4 nM in assay [2].

`O=C1C(c2ccccc2)=COC12CCCN(Cc1ccccc1)C2` (configuration not stated) [7-Benzyl-3-phenyl-1-oxa-7-aza-spiro[4.5]dec-2-en-4-one; hydrochloride]: the Ki in assay [1] was above 10000 nM; in assay [2], 695 nM.

For `O=C1C=C(c2ccccc2)OC12CCN(CCc1ccccc1)CC2` [8-Phenethyl-2-phenyl-1-oxa-8-aza-spiro[4.5]dec-2-en-4-one; hydrochloride], the Ki in assay [1] turned out to be 7180 nM; in assay [2], 1 nM.

As to `CN1CCC2(CC1)OC=C(c1ccccc1)C2=O` [8-Methyl-3-phenyl-1-oxa-8-aza-spiro[4.5]dec-2-en-4-one; hydrochloride], the figures for the inhibitory constant (Ki) in assay [1] and in assay [2] were above 10000 nM and 580 nM, respectively.

Turning to `O=C1C(c2ccccc2)=COC12CCN(Cc1ccccc1)C2` (configuration not stated) [7-Benzyl-3-phenyl-1-oxa-7-aza-spiro[4.4]non-2-en-4-one; hydrochloride], the Ki was found to be 20000 nM in assay [1] and 32 nM in assay [2].

Consider `O=C1C=C(c2ccc(F)cc2)OC12CCN(CCc1ccccc1)CC2` [2-(4-Fluoro-phenyl)-8-phenethyl-1-oxa-8-aza-spiro[4.5]dec-2-en-4-one; hydrochloride], for which the Ki in assay [1] turned out to be 5320 nM; in assay [2] it was 6 nM.

With `CCN(CC)CCCC1(C)OC=C(c2ccccc2)C1=O` (configuration not stated) [2-(3-Diethylamino-propyl)-2-methyl-4-phenyl-furan-3-one; hydrochloride], the Ki in assay [1] is above 10000 nM; in assay [2], 16 nM.

Regarding `O=C1C=C(c2ccccc2)OC12CCCN(Cc1ccccc1)C2` (configuration not stated) [7-Benzyl-2-phenyl-1-oxa-7-aza-spiro[4.5]dec-2-en-4-one; hydrochloride], the figures for the Ki in assay [1] and in assay [2] were above 10000 nM and 4520 nM, respectively.

Take `CN1CCC2(CC1)OC(c1ccccc1)=CC2=O` [8-Methyl-2-phenyl-1-oxa-8-aza-spiro[4.5]dec-2-en-4-one; hydrochloride]: the Ki in assay [1] is 2900 nM; in assay [2], 298 nM.

Take `O=C1C(c2ccc(F)cc2)=COC12CCN(Cc1ccccc1)CC2` [8-Benzyl-3-(4-fluoro-phenyl)-1-oxa-8-aza-spiro[4.5]dec-2-en-4-one; hydrochloride]: the affinity in assay [1], expressed as Ki, was 1420 nM.

The values above are taken from BindingDB's records for doi:10.1016/S0960-894X(01)80879-9 (1993).
